Measured values from patent US20220030866A1, “CONJUGATES OF AUXIN ANALOGS” (The State of Israel, Ministry of Agriculture & Rural …, priority 2019, published 2022).
Marks after values point to notes of the source that are not given here.

How the values were obtained:
Format in all cases: in vivo
[1] = tested on: argan (Argania spinosa) cuttings; assay: rooting of argan cuttings; conditions: in vivo
Description: The ability of exemplary conjugates to promote rooting in plants which are recalcitrant to rooting (in addition to the results obtained with Eucalyptus grandis in Example 3) was examined using cuttings of argan (Argania spinosa) and jojoba (Simmondsia chinensis) in a commercial nursery (Shorashim). The argan and jojoba cuttings were treated with 100 μM of a conjugate (any of Compounds 10-1t) with 6000 ppm IBA. The common treatment T-8 (talc with 8000 ppm IBA and a fungicide) or 6000 ppm IBA (without conjugate) served as a control.
(§1) Exemplary conjugates were also tested for rooting the hard-to-root species of avocado (VC801 rootstock) and argan, according to procedures described hereinabove.

[2] = tested on: avocado rootstock cuttings; assay: rooting of avocado rootstock cuttings
From the text: Avocado rootstock is extremely difficult to root. Currently, the common technique for propagating clones of avocado rootstock is to graft the desired rootstock on a seedling, and transfer to the dark to generate an etiolated branch. This branch can be rooted and grafted with the desired variety while still grafted on the seed [Frolich & Platt, California Avocado Society 1971-72 Yearbook 1972, 55:97-109]. However, the preparation of such twice-grafted seedlings is time-consuming and expensive.
The ability of exemplary conjugates to promote rooting in green avocado cuttings (in the presence of IBA) was therefore examined. In particular, Compounds 2h (MCPA-methanol), 4b (NAA-β-alanine methyl ester), 3g (2-DP-methyl-4-aminobenzoate), 3f (2-DP-p-toluidine), 1l (4-CPA-morpholine) and is (4-CPA-D-Trp) were tested.
as §1

[3] = tested on: cuttings from mature Eucalyptus grandis trees; assay: rooting of cuttings from mature Eucalyptus grandis trees
Description: Eight-year-old Eucalyptus grandis plants were grown from seeds and placed in a net house in 20 liter pots containing peat and tuff (70:30, v/v), drip irrigated and fertilized with 3 liters of Shefer™ 737 liquid fertilizer (ICL Fertilizers, Israel) per cubic meter of water. Cuttings were collected from branches which grew 2-2.5 meters above the ground. Cuttings were 2-3 mm thick branches, 15 cm long, with 1-2 pairs of leaves. The leaf blades were cut in half to decrease transpiration. Cuttings were treated with 6000 ppm IBA (potassium indole-3-butyric acid) for 1 minute with or without 100 μM of each tested compound. The tested compounds were either applied to the base of the cutting, with or without IBA and/or sprayed on the foliage in the presence of 0.05% Triton™ X-100 surfactant. Cuttings were rooted in rooting tables heated to 25° C. under constant 90% humidity, in a controlled-climate greenhouse. The rooting medium contained crushed polystyrene foam: vermiculite no. 3: pit (3:2:1, v/v/v). Rooting was recorded after 30-60 days. Roots system architecture was analyzed by WinRHIZO™ system scanner and software.
Exemplary conjugates prepared as described in Example 1 were tested for their ability to promote adventitious root (AR) formation in cuttings from mature eucalyptus (Eucalyptus grandis) trees. In this model, AR formation is difficult to induce, with 5-15% root development in the presence of IBA potassium salt [Abu-Abied et al., Plant J 2012, 71:787-799], such that effective AR formation indicates a potent root formation activity.
Various concentrations and mode of applications were tested for each compound in the presence or absence of IBA (the “gold standard” rooting enhancer). A concentration of 100 μM of each conjugate was used for an initial screen of 37 conjugates, in which the compounds were applied to the base of the cutting by dipping (submerging the cutting base in a solution of the conjugate for one minute) or to the foliage by spraying. After 45 days, the cuttings were scored for the presence of callus or roots.
Conjugates prepared as described herein were evaluated in a Eucalyptus grandis rooting model, according to procedures such as described hereinabove. The bases of cuttings (a 12-15 cm long branch with the two upper leaves, whose blades were cut in half) were dipped in a solution containing 6000 ppm IBA potassium salt and 50 μM of conjugate for 1 minute, and the leaves were sprayed with 50 μM of the same conjugate (mixed with 0.5% Triton™ X-100 surfactant). The cuttings were imbedded in a heated (25° C.) rooting table containing a 1:2:3 ratio of peat:vermiculite:polystyrene, under 90% relative humidity.

mung bean cuttings = assay: rooting of mung bean cuttings (number of adventitious roots per cutting); conditions: for effect on AR formation in mung bean cuttings, in words: tested at 2, 10 or 50 μM
Description: Mung bean cuttings have been used for many years as a model for assessing the effect of plant hormones and synthetic chemicals on the rooting process. In the present study, this system was used to ascertain activity of conjugates in inducing adventitious root (AR) formation, and to evaluate the rate of conjugate hydrolysis that releases the free active auxin. […] The rooting activity in this system is determined by the number of adventitious roots per cutting.
The mung bean model was used to examine the activity of conjugates of three phenoxy acids, 4-CPA, MCPA, and 2-DP, on rooting. For comparison, plants were treated with (unconjugated) IBA or with 2-DP conjugated to glycine methyl ester (Gly-ME).

[4] = tested on: cuttings from mature Eucalyptus grandis trees; assay: rooting of cuttings from mature Eucalyptus grandis trees; conditions: 100 μM compound by submerging or spraying, with 6000 ppm IBA
DR5:venus marker = assay: auxin activity by DR5:venus fluorescence in Arabidopsis plants; conditions: 10 μM
Description: Imaging was performed using an SP8 Leica confocal microscope including solid-state lasers producing 405, 488, 514 and 552 nm light, and hybrid or PMT detectors. Objectives were either PL APO 20×/0.75, WD 0.62 mm or PL APO 63×/1.2 WD 0.3 mm. For fluorescence measurements, the Imaris™ spot detection option (Bitplane A.G.) was used to segment nuclei and calculate the average signal intensity.
One technique for assessing auxin activity of the 4-CPA amino acid conjugates utilized plants expressing nucleus-localized, fluorescent DR5:venus marker, the expression level of which is an indicator of intracellular auxin activity [Laskowski et al., PLoS Biol 2008, 6:e307]. Four days old seedlings grown on regular MS medium were transferred to plates containing 10 μM of the tested compounds and fluorescence was inspected by confocal microscope after 24 hours.
In order to assess the ability of the abovementioned sodium salts to penetrate the cells and activate an auxin response, an Arabidopsis DR5-Venus model was utilized (as described hereinabove). The plants were exposed to 10 μM of each compound for 24 hour; MS medium was used as a negative control, and the related Compounds 1p, 1r and 1t were used as positive controls.

Arabidopsis seedlings [5] = assay: adventitious root formation in intact etiolated Arabidopsis seedlings; conditions: intact etiolated seedlings; 50 nM, FIG. 17 legend 10 μM for one hour
Description: (§2) Adventitious roots (ARs) were induced in intact plants, using previously described procedures [Gutierrez et al., Plant Cell 2009, 21:3119-3132; Abu-Abied et al., Plant J 2012, 71:787-799; Rasmussen et al., Plant Physiol 2012, 158:1976-1987]. Briefly, seeds were germinated on MS/0.8% agar plates supplemented with 3% sucrose. The plates were kept in the dark for 2 days at 4° C., then 5 days at 22° C. in the dark, 2 days in the light, 3 days in the dark and then additional 4 days in the light to complete 2 weeks when roots were counted using a stereoscope. Sensitivity to auxin and/or auxin analogs was determined by following root elongation on vertical plates. The 4-day-old seedlings were transferred to MS plates containing 0.05 or 0.5 μM IAA and the root length was measured after 5 days, including the number of LRs in each root and calculation of the LR density. Each treatment experiment included 10-15 plants and was repeated 3 times.
In a third assay utilizing an Arabidopsis model, induction of adventitious root AR formation in intact plants was examined in the presence of 50 nM of tested compounds, which included 5 days incubation in the dark, followed by a shift to the light, according to procedures described by Sorin et al. [Plant Cell 2005, 17:1343-1359].
Conjugates prepared as described herein were evaluated in an Arabidopsis rooting model, according to procedures such as described hereinabove. Seeds were germinated and kept in the dark for 4 days. The etiolated seedlings were then incubated for 1 hour in 10 μM of each compound and then transferred to vertical MS medium-containing plates.

[6] = tested on: Pinus halepensis cuttings; assay: rooting and root development in pine cuttings; conditions: 400 ppm IBA potassium salt + 5 ppm conjugate, 4 hours dip; 12 weeks
Description: The effects of exemplary D-amino acid conjugates of 4-CPA (Compounds to and Is) on rooting in Pinus halepensis cuttings were compared with those of 2-DP-glycine methyl ester conjugate (2-DP-Gly). Rooting mature pine cuttings (i.e., cuttings that are taken from trees more than 4 years old) is very difficult.
Apical cuttings were taken from 7-year-old trees, stored for 4 weeks at 4° C., and treated by dipping the cutting bases for 4 hours in the following solution: 400 ppm IBA potassium salt+5 ppm tested conjugate+0.1% Amistar™ fungicide (250 grams/liter azoxystrobin). The cuttings were evaluated after 12 weeks.

Arabidopsis seedlings [7] = assay: root elongation inhibition in Arabidopsis seedlings; conditions: 50 nM, after 5 days
Description: as §2
A common technique for evaluating auxin activity is by determining the ability of a compound to inhibit root elongation [Zolman et al., Genetics 2000, 156:1323-1337]. In order to use this assay for comparing auxin activities of different conjugates, the minimum concentration of free 4-CPA that is active in the root elongation inhibition assay was determined. Four days old seedlings were placed in vertical plates containing increasing concentrations of 4-CPA. The root lengths were marked daily during 5 days.
Based on the above results, the effect of conjugates of 4-CPA (Compounds 1o-1t) on root elongation after 5 days was determined at concentrations of 50 nM.

In the case of `COC(=O)[C@H](CC(N)=O)NC(=O)COc1ccc(Cl)cc1` [4-CPA-L-Asn-methyl ester], the “number of roots per cutting in argan clone YM3 compared to IBA control, in words” value [1] is reported as “considerably increased the number of roots per cutting” and the “root architecture / root length of VC801 avocado cuttings compared to IBA control, in words” value ([2]; VC801 rootstock) is reported as “considerably increased root length”.

With `COC(=O)[C@H](Cc1cnc[nH]1)NC(=O)COc1ccc(Cl)cc1` [4-CPA-L-His-methyl ester] the “number of roots per cutting in argan clone YM3 compared to IBA control, in words” value [1] was “considerably increased the number of roots per cutting” and the “root architecture / root length of VC801 avocado cuttings compared to IBA control, in words” value ([2]; VC801 rootstock) was “considerably increased root length”.

For `CC[C@H](C)[C@H](NC(=O)COc1ccc(Cl)cc1)C(=O)OC` [4-CPA-L-Ile-methyl ester], the “root number compared to IBA control, in words” value ([3]; Example 12: 6000 ppm IBA and 50 μM conjugate dip plus spray) was “promoted an increase in root number”, the “rooting of cuttings, repeated experiment in a different season” value ([3]; Example 12 repeat: 6000 ppm IBA with 50 μM conjugate, or IBA control) was 50% and the “number of roots per cutting in argan clone YM3 compared to IBA control, in words” value [1] was “considerably increased the number of roots per cutting”. For the same compound, the “root architecture / root length of VC801 avocado cuttings compared to IBA control, in words” value ([2]; VC801 rootstock) was “more roots per cutting and considerably longer roots” and the “rooting of VC801 avocado cuttings” value ([2]; VC801 rootstock, conjugate, or IBA control) was 60%.

With `O=C(COc1ccc(Cl)cc1)NCCO` [Compound 1a, 4-CPA-ethanolamine] the “rooting of mung bean cuttings (number of roots per cutting)” value (“rooting … (number of roots per cutting)” for short) (mung bean cuttings; Table 1, 10 μM, water control 29.6) was 49.5, the “rooting … (number of roots per cutting)” value (mung bean cuttings; Table 1, 50 μM, water control 29.6) was 14.9 and the “rooting in combination with IBA compared with IBA alone, in words” value (from here on “rooting … compared with IBA alone, in words”) [4] was “enhanced rooting in comparison with IBA alone”. The “percentage of cuttings which exhibited rooting, stand-alone treatment” value ([3]; 100 μM conjugate without IBA, or 28 mM (6000 ppm) IBA alone, submerging base or spraying, scored after 45-60 days) was 15%.

For `COC(=O)[C@H](NC(=O)COc1ccc(Cl)cc1)C(C)C` [Compound 1o], the “DR5 fluorescence (auxin activity), in words” value (“DR5 fluorescence” below) (DR5:venus marker) was “significantly lower fluorescence”, the “effect on AR formation in mung bean cuttings, in words” value (mung bean cuttings) was “induced rooting to a degree positively correlated with concentration” and the “adventitious roots formed on average” value (Arabidopsis seedlings [5]) was 0.5±0.3. The “Degree of root development Medium (%)” value [6] was 14.3%, the “Degree of root development Weak (%)” value [6] was 7.2% and the “Degree of root development Well-developed (%)” value [6] was 71.4* %. The “Rooting rate (%)” value [6] was 100%, the “appearance of the roots compared with IBA alone” value ([3]; 6000 ppm IBA with 100 μM compound, submersion and spraying) was “appeared more branched” and the “effect on root elongation relative to control, in words” value (Arabidopsis seedlings [7]) was “did not affect root elongation”.

With `COC(=O)C[C@H](NC(=O)COc1ccc(Cl)cc1)C(=O)OC` [Compound 1r, 4-CPA-L-Asp-methyl diester] the “rooting … (number of roots per cutting)” value (mung bean cuttings; Table 2, 2 μM) was 121, the “rooting … (number of roots per cutting)” value (mung bean cuttings; Table 2, 10 μM) was 34 and the “rooting … (number of roots per cutting)” value (mung bean cuttings; Table 2, 50 μM) was 0. For the same compound, the “effect on AR formation in mung bean cuttings, in words” value (mung bean cuttings) was “exhibited more activity than the D-Asp-methyl ester conjugate”, the “rooting … compared with IBA alone, in words” value [4] was “at least as potent as that of their corresponding D-amino acid conjugates” and the “effect on root elongation relative to control, in words” value (Arabidopsis seedlings [7]) was “inhibited root elongation relative to control”.

In the case of `Cc1ccc(NC(=O)C(C)Oc2ccc(Cl)cc2Cl)cc1` (stereo not drawn) [Compound 3f, 2-DP-p-toluidine], the “rooting … compared with IBA alone, in words” value [4] is reported as “enhanced rooting in comparison with IBA alone”, the “roots per cutting of green avocado branches compared with etiolated branches treated with IBA, in words” value ([2]; vc51 rootstock, IBA with compound) is reported as “considerably more roots per cutting” and the “rooting success rate of green avocado branches, in words” value ([2]; vc51 rootstock, IBA with compound, compared with IBA alone) is reported as “considerably enhanced the rooting success rate”.

For `CC(C)[C@H](NC(=O)COc1ccc(Cl)cc1)C(=O)[O-].[Na+]` [Compound 83, 4-CPA-L-Val sodium salt], the “DR5 fluorescence” value (DR5:venus marker) was “about as active as their non-water soluble methyl esters”.

With `O=C([O-])C[C@H](NC(=O)COc1ccc(Cl)cc1)C(=O)[O-].[Na+].[Na+]` [Compound 84, 4-CPA-L-Asp disodium salt] the “DR5 fluorescence” value (DR5:venus marker) was “did not promote DR5 activity”.
